Results taken from patent publication US20230149401A1 (priority 2020, published 2023).

Experiments:
PACE4 (PCSK6) = biological target: T1, PACE4 (PCSK6) (Homo sapiens, UniProt P29122); test: Biochemical PC-inhibition assay, substrate FAM-[…]-TAMRA
T1 construct: PACE4 (PCSK6; 150-693-Tev-Flag-6His); Tev site (C); Flag (C); 6His (C); made in house; host or cells: BacMam transduced CHO cells
Method: (§1) Biochemical assay: The proprotein convertases furin (108-574-Tev-Flag-6His), PC5A (PCSK5; […]-Tev-Flag-6His), PACE4 (PCSK6; 150-693-Tev-Flag-6His), and PC7 (PCSK7; 142-634-Tev-Flag-6His) enzymes were purified from BacMam transduced CHO cells. […] 0.05 μl of each concentration was transferred to the corresponding well of an assay plate, and then 5 μl of enzyme (furin, PCSK5, PCSK6, and PCSK7) in assay buffer (100 mM HEPES pH 7.5, 1 mM CaCl2) and 0.005% Triton X-100) was added using a Multidrop Combi (Thermo) to the compound plates to give a final protein concentration of 0.02, 0.5, 2.5, and 1.0 nM respectively. The plates were mixed by inversion, and following a 30 min preincubation of enzyme with compound at room temperature (˜22° C.), the substrate FAM-[…] -TAMRA (AnaSpec #808143, 5 μl of a 1, 0.25, 0.20, and 0.5 μM solution in assay buffer for furin, PCSK5, PCSK6, and PCSK7 respectively) was added using a Multidrop Combi to the entire assay plate. The plates were centrifuged at 500×g for 1 minute and incubated at room temperature for two hours. Enzyme inhibition was then quantified using an Envision instrument (PerkinElmer). Data were normalized to maximal inhibition determined by 1 μM Decanoyl-Arg-Val-Lys-Arg-Chloromethylketone (Calbiochem #344930). Golgi imaging assay: This assay uses an image-based platform to evaluate the intracellular activity of furin inhibitors. Reactions were performed in black 384-well, tissue culture-treated, clear bottom plates (Greiner). Compounds under analysis were dissolved in DMSO (1.0 mM) and serially diluted 1 to 3 with DMSO through eleven dilutions. This creates a final compound concentration range from 0.00017 to 10 μM, and 0.1 μL of each concentration was transferred to the corresponding well of the assay plate.

PC5A (PCSK5) = biological target: T2, PC5A (PCSK5) (Homo sapiens, UniProt Q92824); test: as above
T2 construct: fused on or other part: C-terminal Tev site, Flag tag and 6His tag
T2 sequence (Q92824 115-601): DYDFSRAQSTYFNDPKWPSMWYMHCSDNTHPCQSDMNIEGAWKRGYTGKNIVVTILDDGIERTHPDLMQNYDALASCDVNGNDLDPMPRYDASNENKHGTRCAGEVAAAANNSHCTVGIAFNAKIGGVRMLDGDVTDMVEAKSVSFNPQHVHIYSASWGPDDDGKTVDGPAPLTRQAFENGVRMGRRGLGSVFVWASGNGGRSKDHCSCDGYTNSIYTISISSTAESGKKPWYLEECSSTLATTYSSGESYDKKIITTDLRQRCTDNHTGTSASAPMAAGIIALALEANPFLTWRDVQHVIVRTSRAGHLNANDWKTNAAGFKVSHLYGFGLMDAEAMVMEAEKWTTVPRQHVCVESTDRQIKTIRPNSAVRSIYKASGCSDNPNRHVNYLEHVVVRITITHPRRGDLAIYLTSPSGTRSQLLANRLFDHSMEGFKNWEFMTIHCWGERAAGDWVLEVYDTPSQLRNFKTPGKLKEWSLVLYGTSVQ
Method: as §1

PC7 (PCSK7) = biological target: T3, PC7 (PCSK7) (Homo sapiens, UniProt Q16549); test: as above
T3 construct: PC7 (PCSK7; 142-634-Tev-Flag-6His); Tev site (C); Flag (C); 6His (C); made in house; host or cells: BacMam transduced CHO cells
T3 sequence (Q16549 142-634): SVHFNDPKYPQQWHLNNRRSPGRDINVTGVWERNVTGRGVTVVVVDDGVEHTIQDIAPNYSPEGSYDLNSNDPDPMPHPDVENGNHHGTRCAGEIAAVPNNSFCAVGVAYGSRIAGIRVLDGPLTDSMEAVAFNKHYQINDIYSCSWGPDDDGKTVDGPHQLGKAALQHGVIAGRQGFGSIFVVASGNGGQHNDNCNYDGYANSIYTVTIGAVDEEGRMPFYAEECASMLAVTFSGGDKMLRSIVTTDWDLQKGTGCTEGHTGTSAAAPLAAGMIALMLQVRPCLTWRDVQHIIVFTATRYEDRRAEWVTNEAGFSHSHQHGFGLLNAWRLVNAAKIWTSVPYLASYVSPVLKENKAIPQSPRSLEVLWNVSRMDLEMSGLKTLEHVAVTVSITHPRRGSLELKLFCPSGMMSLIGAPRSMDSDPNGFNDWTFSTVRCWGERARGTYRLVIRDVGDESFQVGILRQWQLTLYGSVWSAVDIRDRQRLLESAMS
Method: as §1

[1] = test system: endogenous furin-like enzymes; assay type: cell-based; details: HeLa-ACE2 cells
[2] = test system: SARS-CoV-2 Spike ACE2-dependent cell-to-cell fusion; test: microbe, parasite or virus in culture; assay type: cell-based; details: Severe acute respiratory syndrome coronavirus 2; 300 nM
[3] = test system: HIV particles pseudotyped with SARS-CoV-2 S; assay type: cell-based
furin-like convertases = assay type: cell-based; details: 1 μM; 293T17 producing cells and pseudovirions
SARS-CoV-2 [4] = test: microbe, parasite or virus in culture; assay type: cell-based
SARS-CoV-2 [5] = assay type: cell-based
TMPRSS2 = TMPRSS2 (Homo sapiens, UniProt O15393); assay type: cell-based; design: expressed in transfected cells; host or cells: HeLa; details: HeLa cells
Sequence of TMPRSS2 (O15393 whole entry): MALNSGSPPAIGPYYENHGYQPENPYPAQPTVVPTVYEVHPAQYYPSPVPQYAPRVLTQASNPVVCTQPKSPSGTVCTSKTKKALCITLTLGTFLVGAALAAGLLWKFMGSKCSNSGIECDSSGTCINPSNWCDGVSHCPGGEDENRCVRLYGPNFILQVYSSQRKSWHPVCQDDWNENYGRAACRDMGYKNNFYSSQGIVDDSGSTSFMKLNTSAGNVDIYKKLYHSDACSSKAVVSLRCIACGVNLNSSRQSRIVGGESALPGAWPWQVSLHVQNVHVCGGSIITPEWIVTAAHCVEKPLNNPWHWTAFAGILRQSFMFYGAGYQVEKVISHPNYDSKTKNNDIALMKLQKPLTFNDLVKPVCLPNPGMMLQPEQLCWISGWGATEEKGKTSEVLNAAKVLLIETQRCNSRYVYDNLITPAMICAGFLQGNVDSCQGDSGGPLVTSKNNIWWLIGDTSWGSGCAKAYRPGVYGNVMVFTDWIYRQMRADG

T1 sequence (P29122 150-693): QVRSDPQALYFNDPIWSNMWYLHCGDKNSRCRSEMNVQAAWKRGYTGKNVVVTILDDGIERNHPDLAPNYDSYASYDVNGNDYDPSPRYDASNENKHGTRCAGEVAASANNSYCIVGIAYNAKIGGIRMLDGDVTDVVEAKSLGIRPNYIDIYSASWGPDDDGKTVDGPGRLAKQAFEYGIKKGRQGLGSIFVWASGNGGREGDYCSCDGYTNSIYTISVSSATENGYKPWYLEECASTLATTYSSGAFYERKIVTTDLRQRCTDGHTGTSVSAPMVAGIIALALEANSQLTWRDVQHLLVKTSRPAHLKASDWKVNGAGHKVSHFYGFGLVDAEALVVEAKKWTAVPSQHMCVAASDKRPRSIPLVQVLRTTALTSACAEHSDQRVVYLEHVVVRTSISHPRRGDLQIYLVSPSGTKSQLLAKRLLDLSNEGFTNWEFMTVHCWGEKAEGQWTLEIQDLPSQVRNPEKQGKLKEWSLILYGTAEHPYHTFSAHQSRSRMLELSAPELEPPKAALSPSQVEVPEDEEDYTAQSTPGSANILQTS

Compound: CN1CCN(c2ncc(Oc3cc(CN4CCC(CC(=O)O)CC4)cc(-c4cc(Cl)cc(Cl)c4)n3)cn2)CC1 [Compound 93, 2-(1-((2-(3,5-dichloro-phenyl)-6-((2-(4-methyl-piperazin-1-yl)pyrimidin-5-yl)oxy)pyridin-4-yl)methyl)piperidin-4-yl)acetic acid]
- IC50 (PACE4 (PCSK6)): ~7 nM
- IC50 (PC5A (PCSK5)): ~7 nM
- IC50 (PC7 (PCSK7)): ~7 nM
- S1/S2 and S2′ processing by endogenous furin-like enzymes [1]: blocked
- inhibition at 0.3 µM [2]: > 60%
- Viral entry in Calu-3 of pseudovirions packaged in presence of inhibitor [3]: prevents viral entry
- Processing of WT-S (furin-like convertases): clearly impaired
- Concentration from which inhibitory effect could be observed (SARS-CoV-2 [4]): 0.25 µM
- Levels of viral spike and nucleocapsid proteins and progeny virus levels (SARS-CoV-2 [4]): similarly decreased
- Viral titers at 12, 24 and 48h post-infection (SARS-CoV-2 [4]): significantly decreased
- Reduction of titer of progeny viruses (SARS-CoV-2 [4]; 1 μM): more than 30 fold
- IC50 (SARS-CoV-2 [4]; Severe acute respiratory syndrome coronavirus 2, Calu-3, 24 h, read-out: IC50 (virus titer)): 200 nM
- Virus production in infected Vero E6 cells (SARS-CoV-2 [5]): modestly reduce virus production
- Decrease in virus production (SARS-CoV-2 [5]; 1 μM): ~5.7 fold
- Generation of S2a and S2b by TMPRSS2 (TMPRSS2): none of the compounds affected
